Measurements from patent US12102689B2, “Anti-CD22 antibody-maytansine conjugates and methods of use thereof” (R.P. Scherer Technologies, LLC, priority 2015, dated 2024).
pIC50: −log10 of the molar value.

Assays:
Assay type in all cases: cell-based
[1] = tested on: Ramos cells; assay: In vitro cytotoxicity (Cell Titer-Glo, 5 d); details: Homo sapiens, 120 h
Method: (§1) The CD22-positive B-cell lymphoma cell lines, Ramos and WSU-DLCL2, were obtained from the ATCC and DSMZ cell banks, respectively. The cells were maintained in RPMI-1640 medium (Cellgro, Manassas, VA) supplemented with 10% fetal bovine serum (Invitrogen, Grand Island, NY) and Glutamax (Invitrogen). 24 h prior to plating, cells were passaged to ensure log-phase growth. On the day of plating, 5000 cells/well were seeded onto 96-well plates in 90 μL normal growth medium supplemented with 10 IU penicillin and 10 μg/mL streptomycin (Cellgro). Cells were treated at various concentrations with 10 μL of diluted analytes, and the plates were incubated at 37° C. in an atmosphere of 5% CO2. After 5 d, 100 μL/well of Cell Titer-Glo reagent (Promega, Madison, WI) was added, and luminescence was measured using a Molecular Devices SpectraMax M5 plate reader. GraphPad Prism software was used for data analysis.

[2] = tested on: WSU-DLCL2 cells; assay: In vitro cytotoxicity (Cell Titer-Glo, 5 d); details: Homo sapiens, WSUDLCL2, 120 h
Method: as §1

[3] = tested on: MDR1+ Ramos cells; assay: In vitro cytotoxicity assay on MDR1-expressing cells; details: MDR1+ Ramos vs wild-type
Method: (§2) MDR1 (ABCB1) cDNA was obtained from Sino Biological and cloned into a pEF plasmid with a hygromycin selection marker. An AMAXA Nucleofector™ instrument was used to electroporate Ramos (ATCC CRL-1923) and WSU-DLCL2 (DSMZ ACC 575) cells according to the manufacturer's instructions. After selection with hygromycin (Invitrogen 10687010), the pools were enriched with paclitaxel treatment (25 nM for up to 10 days) to further select cells with functional MDR1. The resulting cells were maintained under hygromycin selection in RPMI (Gibco 21870-092) supplemented with 10% fetal bovine serum (FBS) and 1× GlutaMax (Gibco 35050-079).
(§3) Cell lines were plated in 96-well plates (Costar 3610) at a density of 5×10^4 cells/well in 100 μL of growth media and allowed to rest for 5 h. Serial dilution of test samples was performed in RPMI at 6× the final concentration and 20 μL was added to the cells. After incubation at 37° C. with 5% CO2 for 5 days, viability was measured using a Promega CellTiter 96® AQueous One Solution Cell Proliferation Assay (G3581) according to the manufacturer's instructions. GI50 curves were calculated in GraphPad Prism using the ADC's drug-to-antibody ratio (DAR) value to normalize the dose to the payload concentration.

[4] = tested on: MDR1+ WSU-DLCL2 cells; assay: as above
Method: as §2, §3

## COc1cc2cc(c1Cl)N(C)C(=O)C[C@H](OC(=O)[C@H](C)N(C)C(C)=O)[C@]1(C)O[C@H]1[C@H](C)[C@@H]1C[C@@](O)(NC(=O)O1)[C@H](OC)/C=C/C=C(\C)C2 [free maytansine, maytansine]
[1]
  pIC50: 10.40
[2]
  pIC50: 10.07
[3]
  fold less efficacious in MDR1-expressing cells: ~10 fold
[4]; MDR1+ WSU-DLCL2 cells plus cyclosporin
  potency on cotreatment with cyclosporin (MDR1 inhibitor): restored the original potency
[4]; MDR1+ WSU-DLCL2 vs wild-type
  fold less efficacious in MDR1-expressing cells: ~10 fold
